Test: xn = mol fraction of the nth substance listed
Conditions: 101 kPa, Liquid

CCO [ethanol] + CCC(=O)[O-].OCC[NH2+]CCO
x2 = 0
Conditions | mass density [kg/m3] | viscosity [mPa·s]
293.15 K | 789.3 | 1.18
303.15 K | 780.7 | 1.019
313.15 K | 772.5 | 0.8424
323.15 K | 763.6 | 0.7081

CCC(=O)[O-].OCC[NH2+]CCO [bis(2-hydroxyethyl)ammonium propanoate] + CCCO
Conditions | mass density, 293.15 K [kg/m3] | mass density, 303.15 K [kg/m3] | mass density, 313.15 K [kg/m3] | mass density, 323.15 K [kg/m3] | viscosity, 293.15 K [mPa·s] | viscosity, 303.15 K [mPa·s] | viscosity, 313.15 K [mPa·s] | viscosity, 323.15 K [mPa·s]
x1 = 0.0585 | 846.5 | 839 | 831.3 | 823.1 | 31.6 | 15.37 | 6.146 | 3.897
x1 = 0.1031 | 875.3 | 867.9 | 860.4 | 852.6 | 53.29 | 21.15 | 9.633 | 6.039
x1 = 0.2292 | 942.2 | 935 | 927.7 | 920.9 | 120.07 | 47.98 | 21.6 | 13.44
x1 = 0.3021 | 973.6 | 966.5 | 959.3 | 952.9 | 161.5 | 66.19 | 29.62 | 18.46
x1 = 0.4017 | 1010.3 | 1003.3 | 996.2 | 990.3 | 221.9 | 91.87 | 41.98 | 26.24
x1 = 0.5009 | 1041.2 | 1034.3 | 1027.3 | 1021.9 | 288.32 | 119.16 | 56.4 | 35.31
x1 = 0.636 | 1076.2 | 1069.4 | 1062.5 | 1057.6 | 393.08 | 163.5 | 80.35 | 50.21
x1 = 0.7135 | 1093.1 | 1086.4 | 1079.5 | 1074.8 | 461.84 | 194.52 | 96.42 | 60.05
x1 = 0.8018 | 1110.2 | 1103.5 | 1096.5 | 1092.1 | 547.5 | 234.75 | 116.23 | 72
x1 = 0.8979 | 1126.6 | 1119.9 | 1113 | 1108.8 | 646.69 | 281.11 | 138.08 | 84.93
x1 = 0.9568 | 1136 | 1129.3 | 1122.4 | 1118.4 | 701.08 | 304.98 | 149.64 | 92.03
x1 = 1 | 1142.7 | 1136.1 | 1129.2 | 1125.2 | 740.28 | 322.17 | 157.97 | 96.54
